# Values of other authors as cited in patent US4127528A, “Novel derivatives of alpha-endorphin, intermediates therefor and compositions and methods employing said derivatives” (priority 1977, dated 1978).
# Columns and labels:
# [1] = system: brain opiate receptor sites; details: natural peptide
# rat = details: injected directly into the brain of the rat
substance,measurement,setting,value
H-Tyr-Gly-Gly-Phe-Met-OH [methionine enkephalin],binding to partially purified brain opiate receptor sites,[1],binds stereo-specifically
same,activity in bioassays for opiate activity,opiate activity,very active
same,analgesic activity,rat,only weak analgesic activity of short duration
